Patent US20240261274A1, “TREATMENT OF MYC-DRIVEN CANCERS WITH GSPT1 DEGRADERS” (MONTE ROSA THERAPEUTICS, INC., priority 2021, published 2024)
Read-outs that look alike come from different tables or passages of the source.

Columns and labels:
[1] = system: c-Myc HMEC isogenic cell line; experiment: c-Myc and CRBN dependency, HMEC isogenic cell line viability (CellTiterGlo); assay type: cell-based, Human; conditions: 72 hours
Protocol: Human mammary epithelial cells (HMEC) were engineered to express either c-Myc tagged with EGFP or EGFP alone (non myc) (analogous but distinct from Kessler J D et al, Science. 2012 Jan. 20; 335(6066):348-53. doi: 10.1126/science.1212728; Hsu T Y et al, Nature. 2015 Sep. 17; 525(7569):384-8. doi: 10.1038/nature14985). The engineered cells were plated in 6 well plates or seeded at 1000 (myc) or 4000 (non myc) cells/well in a 384 ultra-low attachment plate in a total volume of 40 μL HMEC cell culture media (DMEM/F12+10% HI-FBS+15 mM HEPES+0.5 ug/ml Hydrocortisone+10 ug/ml Insulin+20 ng/ml EGF). Cells were cultured in the presence or absence of doxycycline for 25 population doublings and cell lysates generated for western blotting probing for c-Myc, 4EBP1, phosphor-4EBP1 (p4EBP1) as indicated. β-actin used as a loading control. For the wash-off lane, doxycycline was removed 24 hours before cell lysis. Cell viability was assessed in the presence (Myc on) or absence (Myc off, −Dox) of doxycycline and also following doxycycline removal (Myc off, wash-off). Cell viability was performed following treatment with compound 8 for 72 hours as recommended by the provider (Promega, CellTiterGlo). Similarly, CRBN-dependency was assessed in the HMEC proficient and deficient cell lines induced for c-Myc expression with doxycycline and viability performed as above following 72 hours of treatment with compound 8. EC50 values were determined using Prism8 (GraphPad) and the asymmetric (five-parameter) equation and least squares fit.

[2] = system: MDA-MB-468, MDA-MB-231, MDA-MB-436 and CAL51 triple negative breast cancer models; experiment: In vivo anti-tumor activity of compound 8 in triple negative breast cancer models; design: species or system mice; conditions: i.p. 37 and 75 mpk, 21 continuous days; all four models
Protocol: Shown are representative examples of triple negative breast cancer models with high 4EBP1 marker expression levels. Tumor growth was measured in MDA-MB-468 (ATCC HTB-132) (A), MDA-MB-231 (ATCC HTB-26) (B), MDA-MB-436 (ATCC HTB-130) (C) and CAL51 (DSMZ-ACC-302) (D) as indicated. compound 8 was dosed i.p at 37 and 75 mpk for 21 continuous days and tumor size measured every three days. Vehicle (black line), compound 8 dosed daily at 37 mpk (light grey) and 75 mpk (dark grey). X-axis represents days; y-axis represents the tumor volume (mm^3).

[3] = system: patient-derived xenografts; experiment: In vivo mouse patient-derived xenograft experiment, survival, Compound 345
Excerpt: FIGS. 14A and 14B: In vivo mouse patient-derived xenograft experiment.

[4] = system: NSCLC patient derived xenografts; experiment: Patient derived NSCLC xenograft models (PDX), tumor progression free probability; assay type: in vivo, immunodeficient mice; conditions: high L-Myc or N-Myc expressing PDX models, oral 10 mg/kg daily, progression >800 mm^3
Protocol: Patient derived NSCLC xenograft models (PDX) were made using immunodeficient mice. 14 PDXs were made for high L-Myc or N-Myc expressing NSCLC samples and 19 PDXs were made for low L-Myc or N-Myc expressing NSCLC samples. Animals were divided into a treatment group that received an oral dose of 10 mg/kg Compound 345 daily and a vehicle-only control group. […] Data from these experiments are shown in FIG. 14A (high L-Myc or high N-Myc expressing) and FIG. 14B (low L-Myc or low N-Myc expressing). Tumor progression free probability was plotted over time, with a threshold of tumor progression set at greater than 800 mm^3.
We used log 2FPKM cutoff of 1.5 and 3.4 for N-Myc and L-Myc expression respectively. PDX tumor fragments (2-3 mm in diameter) were inoculated subcutaneously at the upper right dorsal flank of 6-8 weeks old female BALB7c or NODS/CID nude mice. […] Mice were PO dosed with vehicle or Compound 345 at 10 mg/kg daily and tumor volumes recorded at least twice a week. […] For each mouse, we calculated the first day the tumor volume reached 800 mm3 as the endpoint. […] Kaplan-Meier curves were generated in R (ver 4.0.2, survminer package) and log-rank (Mantel-Cox) test P-values were calculated using R (ver 4.0.2, survival package) to assess the differences in survival curves between the Compound 345-treated and vehicle treated samples. […]

L-Myc = L-Myc levels in SCLC lines after Compound 345 (western blot); assay type: cell-based; conditions: SCLC lines NCI-H1836 and NCI-H1876
Excerpt: NCI-H1836 and NCI-H1876 were taken as two representatives of L-Myc high SCLC. Western blot analysis probing for GSPT1 and L-Myc following treatment with Compound 345 as indicated. GAPDH was used as a loading control.

MM1 S cells = experiment: Apoptosis assay, caspase 3/7 activity in MM1 S cells; assay type: cell-based; conditions: 0 to 30 μM, 48 hours
Protocol: For the same MM cell line, the effect of Compound 345 on apoptosis was evaluated. MM1 S cells were treated with Compound 345 in culture at increasing concentrations ranging from 0 to 30 μM and a control group was treated with lenalidomide, a well-known MM drug. After 48 hours, fold-change caspase 3/7 activity (a marker of apoptosis) was measured and plotted against concentration of Compound 345 compared to lenalidomide as the control. […] For the same MM cell line, the impact of Compound 345 on cell viability was evaluated. MM1 S cells were treated with Compound 345 in culture at increasing concentrations ranging from 0 to 100 μM. Cell viability was measured as a percentage survival after 72 hours.
Apoptosis assay: MM1S cells were sub-cultures as recommended by the providers (ATCC, DSMZ) and incubated at 37° C., 5% CO2. Briefly, cells were seeded in white 96-well plates (100 μL/well) at a density of 50000 cells/well and incubated overnight at 37° C. with 5% CO2. […] Cell apoptosis was assessed using the Caspase-Glo® 3/7 Assay kit as recommended by the manufacturer (Promega, Cat. No. G8091, Lot. No. 0000385738) and measurements were performed on the EnSpire multimode plate reader (Perkin Elmer). EC50 values were determined using Prism8.1.2 (GraphPad) and the asymmetric (five-parameter) equation and least squares fit.

Cc1ccc(NC(=O)NCc2ccc3c(c2)C(=O)N(C2CCC(=O)NC2=O)C3)cc1Cl (stereo not shown) [Compound 8]
cell death in cells for which cereblon was knocked out ([1]; CRBN deficient HMEC induced for c-Myc): did not induce death | EC50 ([1]; Homo sapiens, HMEC, absence of doxycycline-driven c-Myc expression, read-out: cell death, highest concentration tested): > 30 µM | EC50 ([1]; Homo sapiens, HMEC, presence of high c-Myc expression (doxycycline), read-out: EC50 of induced cell death): 0.64 µM | EC50 ([1]; after doxycycline was washed out to remove c-Myc expression, read-out: cell death, highest concentration tested): > 30 µM | anti-tumor activity (tumor volume) [2]: robust and dose-dependent anti-tumor activity, including regressions

O=C1CCC(N2Cc3ccc(COC(=O)Nc4cc(OC(F)(F)F)ccc4F)cc3C2=O)C(=O)N1 (stereo not shown) [Compound 345, (2-(2,6-dioxopiperidin-3-yl)-3-oxoisoindolin-5-yl)methyl(2-fluoro-5-(trifluoromethoxy)phenyl)carbamate]
survival ([3]; biomarker negative patient-derived xenografts): but not in the biomarker negative patient-derived xenografts | survival ([3]; biomarker positive (high N-Myc or L-Myc mRNA expression) patient-derived xenografts): significantly prolonged survival | tumor progression free probability [4]: significantly extended the probability that an animal remained tumor-free | L-Myc level, timecourse (L-Myc): downregulation of L-Myc | fold-change caspase 3/7 activity (apoptosis) (MM1 S cells): strong induction of apoptosis
